Results published in patent publication US20040224884A1, “Methods of screening for apoptosis-controlling agents for bone anabolic therapies and uses thereof” (priority 1998, published 2004).

Columns and labels:
[1] = tested on: osteoblastic cells derived from murine calvaria; experiment: Etoposide-induced apoptosis of osteoblastic cells, trypan blue uptake; type: cell-based; settings: for Suppression by 10^−8 M Flutamide: suppression of the anti-apoptotic effect by androgen receptor antagonist; for Lowest Effective Concentration: inhibition of etoposide-induced osteoblast apoptosis, 1 hour pretreatment; for anti-apoptotic effect on osteoblastic cells after pretreatment with ICI182,780: test agent 10^−8 M, ICI182,780 10^−7 M, 1 h pretreatment
Procedure: Osteoblastic cells derived from murine calvaria were pretreated with the sterols for 1 hour before the addition of the pro-apoptotic agent, etoposide. Apoptosis was determined after 6 hours by trypan blue uptake (Jilka et al, J. Bone and Min. Res. 13:793:802, 1998). * indicates p<0.05 versus etoposide alone, by analysis of variance (ANOVA) (Student-Newman-Keuls method).
Osteoblastic cells derived from murine calvaria were pretreated for 1 hour with the pure receptor antagonist ICI182,780 (10^−7 M) before the addition of the test agents (10^−8 M). Apoptosis was induced and quantified as described in FIG. 3. * indicates p<0.05 versus etoposide alone, by ANOVA (Student-Newman-Keuls method).
In this experiment, osteoblastic cells were derived from murine calvaria and were pretreated with the sterols for 1 hour before the addition of the pro-apoptotic agent, etoposide.
In these experiments, cells were pretreated with the indicated concentrations of the various compounds for 1 hour, in the absence or presence of the androgen receptor antagonist flutamide, before the addition of the proapoptotic agent etoposide. Apoptosis was determined after 6 hours by trypan blue uptake as described in FIG. 3.

[2] = tested on: MLO-Y4 osteocytic cells; experiment: Dexamethasone-induced apoptosis of MLO-Y4 cells with PD98059; type: cell-based, murine; settings: 10^−8 M; PD98059 1 hour pretreatment; dexamethasone 6 hours
Procedure: Apoptosis was induced by incubation with the pro-apoptotic agent dexamethasone for 6 hour and quantified as described in FIG. 3. * indicates p<0.05 versus the corresponding control group without dexamethasone, by ANOVA (Student-Newman-Keuls method).
That indeed the anti-apoptotic effect of all the compounds tested herein was mediated via activation of ERKs was established by the results of the experiments shown in FIG. 10. […] Apoptosis was induced by incubation with the pro-apoptotic agent dexamethasone for 6 hours and quantified as described in FIG. 3.

[3] = tested on: MLO-Y4 osteocytic cells; experiment: Etoposide-induced apoptosis of MLO-Y4 osteocytic cells, trypan blue uptake; type: cell-based, murine; settings: for antiapoptotic effect on osteocytes after pretreatment with ICI182,780: ICI182,780 10^−7 M, 1 h pretreatment; for inhibition of etoposide-induced apoptosis of osteocytic cell line: MLO-Y4, pretreated 1 h before etoposide, apoptosis after 6 h
Procedure: Cells were pretreated with the indicated concentrations of the compounds for 1 hour before the addition of the pro-apoptotic agent etoposide. Apoptosis was determined after 6 hour by trypan blue uptake as described in FIG. 3. * indicates p<0.05 versus etoposide alone, by ANOVA (Student-Newman-Keuls method).
MLO-Y4 cells were pretreated for 1 hour with the pure receptor antagonist ICI182,780 (10^−7 M) before the addition of the test agents (10^−8 M). Apoptosis was induced and quantified as described in FIG. 3. * indicates p<0.05 versus etoposide alone, by ANOVA (Student-Newman-Keuls method).
In this experiment, MLO-Y4 cells were pretreated with the indicated concentrations of the various compounds for 1 h before the addition of the pro-apoptotic agent, etoposide. Apoptosis was determined after 6 h by trypan blue uptake as described in FIG. 3.

[4] = tested on: wild type HeLa cells; experiment: Etoposide-induced apoptosis in wild type HeLa cells; type: cell-based, human; settings: 10^−8 M, 1 h; etoposide 5×10^−5 M, 6 hour
Text: (§1) CMV promoter alone and CMV promoter-driven cDNA for mERα or mErβ were stably transfected into HeLa cells. […] Cells were trypsinized, pelleted and trypan blue positive cells enumerated.
(§2) In this experiment, instead of calvaria cells, human HeLa cells which contain undetectable, if any, estrogen receptor were used. HeLa cells were stably transfected with either a CMV promoter-driven cDNA for the murine estrogen receptor-alpha (mERα) or a CMV promoter-driven cDNA for the murine estrogen receptor-beta (mERβ). […] Cells were trypsinized, pelleted and trypan blue positive cells were enumerated.

[5] = tested on: extracellular signal regulated kinases (ERKs) 1 and 2; experiment: Western blot of phosphorylated ERK1/2 in MLO-Y4 cells; type: cell-based, murine; settings: for activation (phosphorylation) of ERKs: 10^−8 M, 5, 15 or 30 minutes; for ability to activate ERKs in the presence of PD98059: 10^−8 M, 5 minutes, 50 μM PD98059
Procedure: (§3) MLO-Y4 osteocytic cells were incubated for 25 minutes in serum -free medium. […] Cell lysates were prepared and proteins were separated by electrophoresis in polyacrylamide gels and transferred to PVDF membranes. Western blotting was performed using a specific antibody recognizing phosphorylated ERKs 1 and 2, followed by reblotting with an antibody recognizing total ERKs. Blots were developed by enhanced chemiluminescence.
as §3, with “MLO-Y4” for “MLO-Y4 osteocytic”, “serum-free medium in the presence or absence of 50 μM PD98059.” for “serum -free medium.”
as §3, with “In this experiment, MLO-Y4” for “MLO-Y4”, “serum-free” for “serum -free”, “extracellular signal regulated kinases” for “ERKs”, “extracellular signal regulated kinases.” for “ERKs.”, “chemiluminescence. […] This effect is too rapid to be accounted for by the classical mechanism of estrogen action.” for “chemiluminescence.”
as §3, with “In this experiment, MLO-Y4” for “MLO-Y4”, “serum-free medium in the presence or absence of 50 μM PD98059.” for “serum -free medium.”, “extracellular signal regulated kinases” for “ERKs”, “extracellular signal regulated kinases.” for “ERKs.”

[6] = molecular target: T1, murine estrogen receptor-beta (mERβ) (Mus musculus, UniProt O08537); experiment: Etoposide-induced apoptosis in HeLa cells stably transfected with mERβ; type: cell-based, human; settings: 10^−8 M, 1 h; etoposide 5×10^−5 M, 6 hour
T1 construct: expressed in transfected cells
Text: as §1, §2

[7] = tested on: osteoclasts; settings: increased from approximately 0.5%; cited from earlier work
[8] = rats, intravenously; cited from earlier work
[9] = after one year of treatment; cited from earlier work
[10] = for at least four years; cited from earlier work
[11] = tested on: osteoblasts; settings: intermittent administration in mice; from 1.7-2.2%; cited from earlier work

T1 sequence (O08537 whole entry): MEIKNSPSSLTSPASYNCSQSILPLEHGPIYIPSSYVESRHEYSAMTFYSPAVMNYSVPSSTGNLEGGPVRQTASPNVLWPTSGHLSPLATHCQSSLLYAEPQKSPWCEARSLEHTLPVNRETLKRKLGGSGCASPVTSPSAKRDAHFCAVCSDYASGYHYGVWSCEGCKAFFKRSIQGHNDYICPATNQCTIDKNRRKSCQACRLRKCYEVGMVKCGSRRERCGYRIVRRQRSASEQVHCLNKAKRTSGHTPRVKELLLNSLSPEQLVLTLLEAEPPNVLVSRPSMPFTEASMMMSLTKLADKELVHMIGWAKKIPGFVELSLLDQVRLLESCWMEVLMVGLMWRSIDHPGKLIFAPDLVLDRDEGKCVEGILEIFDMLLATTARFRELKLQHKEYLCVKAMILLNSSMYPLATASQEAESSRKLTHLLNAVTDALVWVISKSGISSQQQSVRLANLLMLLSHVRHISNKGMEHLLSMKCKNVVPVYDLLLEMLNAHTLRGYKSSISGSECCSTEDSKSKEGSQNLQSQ

## C[C@]12CCC(=O)C=C1CC[C@@H]1[C@@H]2CC[C@]2(C)C(=O)CC[C@@H]12 [4-androstene-3,17-dione]
[1]
  Suppression by 10^−8 M Flutamide: yes

## C[C@]12CC[C@H]3[C@@H](CC=C4C[C@@H](O)CC[C@@]43C)[C@@H]1CC[C@@H]2O [5-androstene-3β-17_-diol]
[1]
  Lowest Effective Concentration: 10^−8 M
  Suppression by 10^−8 M Flutamide: yes

## C[C@]12CCC(=O)C[C@@H]1CC[C@@H]1[C@@H]2CC[C@]2(C)[C@@H](O)CC[C@@H]12 [5-α-dihydrotestosterone]
[1]
  Lowest Effective Concentration: 10^−9 M
  Suppression by 10^−8 M Flutamide: yes

## C[C@]12CCC(=O)C[C@@H]1CC[C@@H]1[C@@H]2CC[C@]2(C)[C@@H](O)CC[C@@H]12 [5-β-dihydrotestosterone]
[1]
  Lowest Effective Concentration: 10^−10 M
  Suppression by 10^−8 M Flutamide: yes

## C[C@]12CC[C@@H]3c4ccc(O)cc4CC[C@H]3[C@@H]1CC[C@H]2O [17α-estradiol]
[1]
  anti-apoptotic effect on osteoblastic cells after pretreatment with ICI182,780: abrogated
[2]
  anti-apoptotic effect after pretreatment with PD98059: prevented the anti-apoptotic effect
[3]
  antiapoptotic effect on osteocytes after pretreatment with ICI182,780: abrogated
  inhibition of etoposide-induced apoptosis of osteocytic cell line: dose-dependently inhibited
[4]
  effect on etoposide-induced apoptosis of wild type HeLa cells: none of the three compounds had any effect
[5]
  activation (phosphorylation) of ERKs: activated
  ability to activate ERKs in the presence of PD98059: abrogated
[6]
  inhibition of etoposide-induced apoptosis in HeLa cells transfected with estrogen receptor β: potently inhibited

## C[C@]12CC[C@@H]3c4ccc(O)cc4CC[C@H]3[C@@H]1CC[C@@H]2O [17β-estradiol]
[1]; pretreated 1 hour before etoposide, apoptosis after 6 hours by trypan blue uptake
  inhibition of etoposide-induced osteoblastic cell apoptosis: prevented apoptosis
[1]
  anti-apoptotic effect on osteoblastic cells after pretreatment with ICI182,780: abrogated
[7]
  apoptosis of osteoclasts: ≤ 2.7%
[2]
  anti-apoptotic effect after pretreatment with PD98059: prevented the anti-apoptotic effect
[3]
  antiapoptotic effect on osteocytes after pretreatment with ICI182,780: abrogated
  inhibition of etoposide-induced apoptosis of osteocytic cell line: dose-dependently inhibited
[4]
  effect on etoposide-induced apoptosis of wild type HeLa cells: none of the three compounds had any effect
[5]
  activation (phosphorylation) of ERKs: activated
  ability to activate ERKs in the presence of PD98059: abrogated
[6]
  inhibition of etoposide-induced apoptosis in HeLa cells transfected with estrogen receptor β: potently inhibited

## C[C@]12CC[C@H](OS(=O)(=O)O)CC1=CC[C@@H]1[C@@H]2CC[C@]2(C)C(=O)CC[C@@H]12 [Dehydroisoandrosterone-3-sulfate (DHES), Dehydroisoandrosterone-3-sulfate]
[1]
  Lowest Effective Concentration: 10^−8 M
  Suppression by 10^−8 M Flutamide: no*

## CC(=O)N[C@@H](CS)C(=O)O [N-acetylcysteine, acetamido-mercaptopropionic acid]
[8]
  LD50: 1140 mg/kg

## C[C@]1(O)CC[C@H]2[C@@H]3CCC4=CC(=O)CCC4=C3C=C[C@@]21C [RU1881]
[1]
  Lowest Effective Concentration: 10^−8 M
  Suppression by 10^−8 M Flutamide: yes

## C[C@]12CC[C@H]3[C@@H](CCC4=CC(=O)CC[C@@]43C)[C@@H]1CC[C@@H]2O [Testosterone]
[1]
  Suppression by 10^−8 M Flutamide: yes

## CC(O)(P(=O)(O)O)P(=O)(O)O [etidronate]
[9]
  reduction of resorption depth in human iliac trabecular bone: ~30%

## [F-].[Na+] [sodium fluoride]
[10]
  increase in vertebral bone mass: 10 % a year

B1: PTH: parathyroid hormone, agent known for its role in calcium homeostasis (protein, UniProt P01270 32-115, looked up)
Parathyroid hormone: SVSEIQLMHNLGKHLNSMERVEWLRKKLQDVHNFVALGAPLAPRDAGSQRPRKKEDNVLVESHEKSLGEADKADVNVLTKAKSQ
modifications: Parathyroid hormone
notes: parathyroid hormone, agent known for its role in calcium homeostasis
[11]
  prevalence of osteoblast apoptosis: 0.1-0.4%
